Experiments:
[1] = system: NFAT; assay: Cellular NFAT-reporter-gene assay (GloResponse NFAT-RE-luc2P HEK293); format: cell-based; settings: Homo sapiens, HEK293, 16 h, read-out: NFAT-reporter-gene assay IC50
Text: An antigen specific stimulation of the T-cell receptor causes the activation of transcription factors such as e.g. NFAT (nuclear factor of activated T cells). NFAT-activation is essential for the expression of interleukine-2 and therefore, for the proliferation of T-cells as part of the immune response. A stable NFAT-reporter-gene cell line enables the analysis of modulators of the NFAT-pathways and thus, the evaluation of the immunosuppressive effects of compounds.
The stably transfected reporter-gene cell line GloResponse NFAT-RE-luc2P HEK293 (promega Corp. USA) was cultivated in DMEM (10% FCS; 2 mM Glutamin; 200 μg/ml Hygromycin) and seeded on 96-well plates (200.000 cells/well). The compounds to be tested were either added to the cells in a 2-point-determination (5 μM and 10 μM) or an ICH-determination (concentration series 4.1 nM-1 μM). […] Immediately thereafter the cells were stimulated with 5 nM PMA and 2 μM ionomycin and incubated over 16 h (37° C.; cell incubator). This double stimulation simulates a T-cell receptor stimulation and causes a NFAT activation with subsequently expression of the luciferase-reporter-gene. The amount of luciferase was quantitatively determined after 16 h by measurement of the bioluminescence by Bright-Glo Luciferase-Assay-System (Promega Corp., USA). The averaged luciferase values of the vehicle treated (1% DMSO) and with PMA/ionomycin stimulated cells were used as positive control and reference value.

[2] = in vitro; settings: human, Caco-2, pH 7.4
[3] = target: recombinant human wild type Cyp18 (Cyp18 wt) (Homo sapiens, UniProt P62937); assay: biochemical
Sequence of recombinant human wild type Cyp18 (Cyp18 wt) (P62937 whole entry): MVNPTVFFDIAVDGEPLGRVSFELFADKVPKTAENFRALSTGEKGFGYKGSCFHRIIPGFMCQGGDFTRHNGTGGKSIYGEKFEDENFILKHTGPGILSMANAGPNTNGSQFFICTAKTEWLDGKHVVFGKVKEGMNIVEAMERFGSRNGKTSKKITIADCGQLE
Method: The determination was performed on a UV/Vis spectrometer at 10° C. cuvette temperature, whereby the device is operated at 390 nm in kinetic-mode (measurement buffer: 35 mM HEPES/NaOH pH 7.8 (AppliChem A1069)). 0.58 nM recombinant human wild type Cyp18 (Cyp18 wt), 2.33 nM bovine serum albumin (BSA) and 1 mg/ml chymotrypsin (Merck) solved in 35 mM HEPES/NaOH pH 7.8 as well as different concentration of each test substance, where appropriate, were in the cuvette. The reaction was started with a stock solution of Suc-Ala-Ala-Pro-Phe-4-nitroanilide (Bachem, 10 mg/ml DMSO) as substrate so that a final substrate concentration of 32 μM resulted. The extinction-time-curves were evaluated after expiry of the fast phase of the reaction i.e. after approximately 60 seconds according to a rate equation of a first-order reaction.

[4] = target: calcineurin (Homo sapiens, UniProt P62937+P63098+Q08209); assay: Inhibition of the phosphatase activity of calcineurin (scintillation-proximity-assay, in presence of Cyp18);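 further: calcineurin dephosphorylation of a ³³P-labelled RII phosphopeptide, captured on streptavidin-coated wells and read by scintillation counting, with uninhibited enzyme activity taken as 100%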
Method: The measurement was carried out by incubation of 10 μMol of the biotinylated phosphopeptide [sequence]pSer-Val-Ala-Ala-Glu (MW=2192.0) (RH-peptide) marked with ^33P in a sample buffer (40 mM Tris-HCl, pH 7.5, 100 mM NaCl, 6 mM MgCl2, 0.5 mM dithiothreitol, 1 mM. CaCl2, 0.1 mg/ml bovine serum albumin) in presence of 50 nM calmodulin and 1.32 nM calcineurin at 30° C. for 20 min in a 96 well micro titer plate (Costar, Bodenheim, Germany). The total volume of the assay/well was 100 μl. After this reaction time a 90 μl aliquot of the reaction mixture was transferred into a scintillation cavity coated with streptavidin and incubated for 20 min at 22° C. After a washing step the RII phosphopeptide-associated ^33P radioactivity was measured in a MicroBeta Top Counter (Wallac) and the enzyme activity was indicated as average value of three measurements±S.D. The uninhibited dephosphorylation activity has been set on 100%.

[5] = Determination of cell permeability in PAMPA cell membranes (Parallel Artificial Membrane Permeability Assay); format: in vitro ADME; settings: 500 μM, Hepes buffer pH 7.4, 16 hours, room temperature
Method: After an incubation of 16 hours at room temperature in a liquid chamber the optical density of the solution after filtration has been measured in a range of 250 to 500 nm in steps of 10 nm each. The percentage “Flux” has been calculated from the integral of the graph between 250 and 500 nm and standardized on the optical density determined in the parallel reaction without artificial membrane.

Compound | IC50 [1] [µM] | Papp A→B at 2 h, 5 μM [2] [×10⁻⁶ cm/s] | Papp B→A at 2 h, 5 μM [2] [×10⁻⁶ cm/s] | IC50 [3] [nM] | IC50 [4] [µM] | Cell permeability in PAMPA-cell membranes [5] [% flux]
CC[C@@H]1NC(=O)[C@H]([C@H](O)[C@H](C)Cc2nc3cc(C(N)=O)ccc3[nH]2)N(C)C(=O)[C@H](C(C)C)N(C)C(=O)[C@H](CC(C)C)N(C)C(=O)[C@H](CC(C)C)N(C)C(=O)[C@@H](C)NC(=O)[C@H](C)NC(=O)[C@H](CC(C)C)N(C)C(=O)[C@H](C(C)C)NC(=O)[C@H](CC(C)C)N(C)C(=O)CN(C)C1=O [Compound 23] | > 10 | 0.3 | 0.6 | 3.8 | > 10 | –
CC[C@@H]1NC(=O)[C@H]([C@H](O)[C@H](C)Cc2nc3cc(C(=O)OCCN(C)C)ccc3[nH]2)N(C)C(=O)[C@H](C(C)C)N(C)C(=O)[C@H](CC(C)C)N(C)C(=O)[C@H](CC(C)C)N(C)C(=O)[C@@H](C)NC(=O)[C@H](C)NC(=O)[C@H](CC(C)C)N(C)C(=O)[C@H](C(C)C)NC(=O)[C@H](CC(C)C)N(C)C(=O)CN(C)C1=O [Compound 26] | > 10 | – | – | 10.8 | 6.2 | –
CC[C@@H]1NC(=O)[C@H]([C@H](O)[C@H](C)Cc2nc3cc(C(=O)OCCN4CCOCC4)ccc3[nH]2)N(C)C(=O)[C@H](C(C)C)N(C)C(=O)[C@H](CC(C)C)N(C)C(=O)[C@H](CC(C)C)N(C)C(=O)[C@@H](C)NC(=O)[C@H](C)NC(=O)[C@H](CC(C)C)N(C)C(=O)[C@H](C(C)C)NC(=O)[C@H](CC(C)C)N(C)C(=O)CN(C)C1=O [Compound 27] | 7.4 | – | – | 5.9 | 6.4 | –
CC[C@@H]1NC(=O)[C@H]([C@H](O)[C@H](C)Cc2nc3cccc(C(=O)O)c3[nH]2)N(C)C(=O)[C@H](C(C)C)N(C)C(=O)[C@H](CC(C)C)N(C)C(=O)[C@H](CC(C)C)N(C)C(=O)[C@@H](C)NC(=O)[C@H](C)NC(=O)[C@H](CC(C)C)N(C)C(=O)[C@H](C(C)C)NC(=O)[C@H](CC(C)C)N(C)C(=O)CN(C)C1=O [Compound 28] | > 10 | < 0.4 | 0.3 | – | – | 3.3
CC[C@@H]1NC(=O)[C@H]([C@H](O)[C@H](C)Cc2nc3cccc(C(=O)OC)c3[nH]2)N(C)C(=O)[C@H](C(C)C)N(C)C(=O)[C@H](CC(C)C)N(C)C(=O)[C@H](CC(C)C)N(C)C(=O)[C@@H](C)NC(=O)[C@H](C)NC(=O)[C@H](CC(C)C)N(C)C(=O)[C@H](C(C)C)NC(=O)[C@H](CC(C)C)N(C)C(=O)CN(C)C1=O [Compound 29] | 10 | – | – | 29.5 | > 10 | –
CC[C@@H]1NC(=O)[C@H]([C@H](O)[C@H](C)Cc2nc3cc(C(=O)O)c(C(=O)O)cc3[nH]2)N(C)C(=O)[C@H](C(C)C)N(C)C(=O)[C@H](CC(C)C)N(C)C(=O)[C@H](CC(C)C)N(C)C(=O)[C@@H](C)NC(=O)[C@H](C)NC(=O)[C@H](CC(C)C)N(C)C(=O)[C@H](C(C)C)NC(=O)[C@H](CC(C)C)N(C)C(=O)CN(C)C1=O [Compound 31] | > 10 | < 0.15 | < 0.18 | 39.9 | – | 0.2
CC[C@@H]1NC(=O)[C@H]([C@H](O)[C@H](C)Cc2nc3cc(C(=O)OC)c(C(=O)OC)cc3[nH]2)N(C)C(=O)[C@H](C(C)C)N(C)C(=O)[C@H](CC(C)C)N(C)C(=O)[C@H](CC(C)C)N(C)C(=O)[C@@H](C)NC(=O)[C@H](C)NC(=O)[C@H](CC(C)C)N(C)C(=O)[C@H](C(C)C)NC(=O)[C@H](CC(C)C)N(C)C(=O)CN(C)C1=O [Compound 32] | > 10 | – | – | 24.9 | > 10 | –
CC[C@@H]1NC(=O)[C@H]([C@H](O)[C@H](C)Cc2nc3cc(-c4nnn[nH]4)ccc3[nH]2)N(C)C(=O)[C@H](C(C)C)N(C)C(=O)[C@H](CC(C)C)N(C)C(=O)[C@H](CC(C)C)N(C)C(=O)[C@@H](C)NC(=O)[C@H](C)NC(=O)[C@H](CC(C)C)N(C)C(=O)[C@H](C(C)C)NC(=O)[C@H](CC(C)C)N(C)C(=O)CN(C)C1=O [Compound 33] | > 10 | < 0.15 | < 0.15 | – | > 10 | 0.25
CC[C@@H]1NC(=O)[C@H]([C@H](O)[C@H](C)Cc2nc3cc(C(=O)O)ccc3n2C)N(C)C(=O)[C@H](C(C)C)N(C)C(=O)[C@H](CC(C)C)N(C)C(=O)[C@H](CC(C)C)N(C)C(=O)[C@@H](C)NC(=O)[C@H](C)NC(=O)[C@H](CC(C)C)N(C)C(=O)[C@H](C(C)C)NC(=O)[C@H](CC(C)C)N(C)C(=O)CN(C)C1=O [Compound 36] | > 10 | 0.3 | – | – | > 10 | 0.7
CC[C@@H]1NC(=O)[C@H]([C@H](O)[C@H](C)Cc2nc3ccc(C(=O)O)cc3n2C)N(C)C(=O)[C@H](C(C)C)N(C)C(=O)[C@H](CC(C)C)N(C)C(=O)[C@H](CC(C)C)N(C)C(=O)[C@@H](C)NC(=O)[C@H](C)NC(=O)[C@H](CC(C)C)N(C)C(=O)[C@H](C(C)C)NC(=O)[C@H](CC(C)C)N(C)C(=O)CN(C)C1=O [Compound 37] | > 10 | 0.1 | – | – | – | 2
CC[C@@H]1NC(=O)[C@H]([C@H](O)[C@H](C)Cc2nc3cc(NC(=O)C(F)(F)F)ccc3[nH]2)N(C)C(=O)[C@H](C(C)C)N(C)C(=O)[C@H](CC(C)C)N(C)C(=O)[C@H](CC(C)C)N(C)C(=O)[C@@H](C)NC(=O)[C@H](C)NC(=O)[C@H](CC(C)C)N(C)C(=O)[C@H](C(C)C)NC(=O)[C@H](CC(C)C)N(C)C(=O)CN(C)C1=O [Compound 38] | 3.8 | – | – | 14.3 | 3.34 | –
CC[C@@H]1NC(=O)[C@H]([C@H](O)[C@H](C)Cc2nc3cc(-c4ccc(N)c(N)c4)ccc3[nH]2)N(C)C(=O)[C@H](C(C)C)N(C)C(=O)[C@H](CC(C)C)N(C)C(=O)[C@H](CC(C)C)N(C)C(=O)[C@@H](C)NC(=O)[C@H](C)NC(=O)[C@H](CC(C)C)N(C)C(=O)[C@H](C(C)C)NC(=O)[C@H](CC(C)C)N(C)C(=O)CN(C)C1=O [Compound 39] | 10 | – | – | 6.1 | > 10 | –
CC[C@@H]1NC(=O)[C@H]([C@H](O)[C@H](C)Cc2nc3cc(N)c(N)cc3[nH]2)N(C)C(=O)[C@H](C(C)C)N(C)C(=O)[C@H](CC(C)C)N(C)C(=O)[C@H](CC(C)C)N(C)C(=O)[C@@H](C)NC(=O)[C@H](C)NC(=O)[C@H](CC(C)C)N(C)C(=O)[C@H](C(C)C)NC(=O)[C@H](CC(C)C)N(C)C(=O)CN(C)C1=O [Compound 40] | > 10 | – | – | 5.5 | 8 | –
CC[C@@H]1NC(=O)[C@H]([C@H](O)[C@H](C)Cc2nc3cc(N4CCN(C)CC4)ccc3[nH]2)N(C)C(=O)[C@H](C(C)C)N(C)C(=O)[C@H](CC(C)C)N(C)C(=O)[C@H](CC(C)C)N(C)C(=O)[C@@H](C)NC(=O)[C@H](C)NC(=O)[C@H](CC(C)C)N(C)C(=O)[C@H](C(C)C)NC(=O)[C@H](CC(C)C)N(C)C(=O)CN(C)C1=O [Compound 41] | > 10 | – | – | 3 | > 10 | –
CC[C@@H]1NC(=O)[C@H]([C@H](O)[C@H](C)Cc2nc3cc(NS(=O)(=O)C(F)(F)F)ccc3[nH]2)N(C)C(=O)[C@H](C(C)C)N(C)C(=O)[C@H](CC(C)C)N(C)C(=O)[C@H](CC(C)C)N(C)C(=O)[C@@H](C)NC(=O)[C@H](C)NC(=O)[C@H](CC(C)C)N(C)C(=O)[C@H](C(C)C)NC(=O)[C@H](CC(C)C)N(C)C(=O)CN(C)C1=O [Compound 47] | > 10 | – | – | 13.2 | > 10 | –

Source: patent US9453051B2, “Cyclosporin derivatives” (priority 2011, dated 2016)
